Source: patent US10821079B2, “PKC activators and combinations thereof” (Cognitive Research Enterprises, Inc., priority 2011, dated 2020)
pEC50: −log10 of the molar value.

Experiments:
[1] = system: rat primary hippocampal neurons; assay: Neurotoxic effect of Aβ1-42 assemblies, MTT viability; assay type: cell-based; conditions: 20 hr
Experimental: Viability of cells was measured by MTT assay. MTT (3-(4,5-Dimethylthiazol-2-yl)-2,5-diphenyltetrazolium bromide) is a tetrazolium salt that is cleaved to formazan by the succinate dehydrogenase, which is only active in viable cells. After solubilization of the formazan, the amount of dye can be quantified with a microplate reader at 570 nm along with a reference of 630 nm. For MTT assay, 5×104 primary rat hippocampal neurons from 18-day-old embryonic Sprague-Dawley rat brains were plated on each well of 24-well plates coated with poly-D-lysine. After treatment, the cells were washed with 1×PBS and were incubated with 200 μl of 1 mg/ml MTT solution (Sigma, USA) at 37° C. for 2 hr. Then the MTT-solution was removed and the cells were lysed with 200 μl isopropanol containing 0.04 M HCl and 160 mM NaOH for 10 min. Finally, the reading was done at 570 nm and 630 nm. All the samples were done in triplicates and the data was represented as the percentage of control.
To assess the neurotoxic effect of different sized oligomers, rat primary hippocampal neurons were treated with variable concentrations of these Aβ1-42 species for 20 hr. Viability of the treated cells was compared to untreated cells using the MTT assay.

PKC-ε [2] = assay: PKC-ε translocation to membrane in SH-SY5Y cells (Western blot); assay type: cell-based, human; conditions: ASPD; ADDL at 20-fold higher concentrations
Experimental: Cells were harvested in homogenizing buffer containing 10 mM Tris-Cl (pH 7.4), 1 mM PMSF (phenylmethylsulfonyl fluoride), 1 mM EGTA, 1 mM EDTA, 50 mM NaF, and 20 μM leupeptin and were lysed by sonication. The homogenate was centrifuged at 100,000×g for 15 min at 4° C. to obtain the cytosolic fraction (supernatant) and membrane (pellet). The pellet was resuspended in the homogenizing buffer by sonication. Protein concentration was measured using the Coomassie Plus (Bradford) Protein Assay kit (Pierce, USA). Following quantification, 20 μg of protein from each sample was subjected to SDS-PAGE analysis in 4-20% gradient Tris-Glycine gel (Invitrogen, USA). The separated protein was then transferred to nitrocellulose membrane. The membrane was blocked with BSA at room temperature for 15 min and was incubated with primary antibody over night at 4° C. After the incubation, it was washed three times with TBS-T (Tris Buffered saline-Tween 20) and further incubated with alkaline phosphatase conjugated secondary antibody (Jackson Immunoresearch Laboratories, USA) at 1:10,000 dilution for 45 min. The membrane was finally washed three times with TBS-T and developed using the 1-step NBT-BCIP substrate (Pierce, USA). Western Blot was imaged in the ImageQuant RT-ECL (GE Life Sciences, Piscataway, N.J.) and densitometric quantification was performed using the IMAL software (Blanchette Rockefeller Neurosciences Institute, Morgantown, W. Va.). For translocation assays, PKC activation was represented as the percentage of total protein in the membrane (membrane/cytosol+membrane).
Equal amounts of proteins were loaded in each lane (20 μg) for both the cytosol and membrane fractions. Activation of PKC was calculated as the percentage of total PKC in the membrane (membrane/cytosol+membrane).

[3] = system: rat hippocampal primary neurons; assay: Synaptic marker immunofluorescence in rat hippocampal primary neurons; assay type: cell-based; conditions: 50 nM ASPDs; 1 μM ADDLs; 20 hr
Experimental: Cells were grown in two chambered slides (Nunc, USA) at low density. For immunofluorescence staining, the cells were washed with PBS (pH 7.4) and fixed with 4% paraformaldehyde for 4 min. Following fixation, the cells were blocked and permeabilized with 5% serum and 0.3% Triton X 100 in 1×PBS for 30 min. The cells were washed three times with 1×PBS and incubated with primary antibodies for 1 hr at 1:100 dilution. The incubation slides were then washed again three times in 1×PBS and were incubated with the FITC anti-rabbit IgG and Rhodamine anti-mouse IgG for 1 hr at 1:400 dilution. The cells were further washed and treated with DAPI (4′,6-diamidino-2′-phenylindole, dihydrochloride) (Thermo Scientific, USA) to stain the nucleus. Finally, the slides were washed and mounted in Pro Long Gold antifade mounting solution (Invitrogen, USA) and were viewed under the LSM 710 Meta confocal microscope (Zeiss) at 350 nm, 490 nm, and 540 nm excitation and 470 nm, 525 nm, and 625 nm emission for DAPI, FITC, and Rhodamine respectively. Six individual fields at 63× oil lens magnification were analyzed for the mean fluorescence intensity (MFI) in each channel. The co-localization correlation generated by the ZEN software (Zeiss).
To estimate the synaptic damage caused by the ASPDs on primary hippocampal neurons, the expression of synaptophysin (a presynaptic marker) and PSD-95 (a postsynaptic marker) was measured by immunofluorescence staining. […] Following a 20 hr incubation period, the cells were stained for nucleus, PSD-95, and synaptophysin. Expression levels were calculated as the change of percentage in mean fluorescence intensity compared to untreated cells.
Primary neurons, treated and untreated, were immunostained for MAP-2, synaptophysin, and PSD-95 to determine the synaptic integrity. […] Following a 20 hr incubation period, the cells were stained for MAP-2, PSD-95, and synaptophysin as described above.

[4] = system: phosphatidylserine (C2) binding site; assay: 3H-DCPLA-ME binding to rat brain slices with competitors, film autoradiography
Experimental: To determine the binding site of DCPLA-ME, ^3H-DCPLA-ME was incubated with rat brain slices in the absence and presence of known C1 and C2 competitors. More specifically, rat brain sections were fixed with formaldehyde, sliced, and incubated with (1) ^3H-DCPLA-ME alone; (2) ^3H-DCPLA-ME with DCPLA; (3) ^3H-DCPLA-ME with Phorbol ester; or (4) ^3H-DCPLA-ME and Bryostatin 1. After incubation, the slices were washed with a buffer made of 130 mM NaCl, 5 mM MgCl, 5 mM KCl, 1 mM EGTA, and 0.1% bovine serum albumin in 10 mM HEPES-NaOH, pH 7.4, dried, and analyzed with film-autoradiography.

PKC-ε [5] = biological target: T1, PKC-ε (Homo sapiens, UniProt Q02156); assay: Activation of purified PKC isozymes, radiometric: PKC-ε; assay type: biochemical; conditions: for Specificity ε/α: Activation of PKC-ε ÷ activation or inhibition of PKCα at 3 × EC50
T1 sequence (Q02156 1-737): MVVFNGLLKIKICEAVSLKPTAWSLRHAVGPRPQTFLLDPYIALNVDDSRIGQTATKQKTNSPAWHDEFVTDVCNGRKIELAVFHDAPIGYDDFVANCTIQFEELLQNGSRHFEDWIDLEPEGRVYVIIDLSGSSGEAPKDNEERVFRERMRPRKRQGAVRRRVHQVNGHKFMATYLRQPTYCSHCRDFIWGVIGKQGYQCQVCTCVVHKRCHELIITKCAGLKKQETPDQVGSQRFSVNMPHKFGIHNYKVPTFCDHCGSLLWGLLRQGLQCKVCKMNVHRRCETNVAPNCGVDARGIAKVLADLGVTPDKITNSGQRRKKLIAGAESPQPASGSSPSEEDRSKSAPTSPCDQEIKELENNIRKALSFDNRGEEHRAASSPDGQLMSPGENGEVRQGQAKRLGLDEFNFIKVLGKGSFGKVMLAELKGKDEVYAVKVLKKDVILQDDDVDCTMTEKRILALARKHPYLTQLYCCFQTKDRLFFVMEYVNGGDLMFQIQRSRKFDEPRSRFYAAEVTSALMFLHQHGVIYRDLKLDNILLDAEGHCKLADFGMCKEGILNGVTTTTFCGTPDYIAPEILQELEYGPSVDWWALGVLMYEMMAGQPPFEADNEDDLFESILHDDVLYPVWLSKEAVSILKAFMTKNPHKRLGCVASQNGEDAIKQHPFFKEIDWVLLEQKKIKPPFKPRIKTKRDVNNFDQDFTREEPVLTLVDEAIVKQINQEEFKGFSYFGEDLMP
Experimental: (§1) To measure PKC, 10 μl of cell homogenate or purified PKC isoform was incubated for 15 min at 37° C. in the presence of 10 μM histones, 4.89 mM CaCl2, 1.2 μg/μl phosphatidyl-L-serine, 0.18 μg/μl 1,2-dioctanoyl-sn-glycerol, 10 mM MgCl2, 20 mM HEPES (pH 7.4), 0.8 mM EDTA, 4 mM EGTA, 4% glycerol, 8 μg/ml aprotinin, 8 μg/ml leupeptin, and 2 mM benzamidine. [γ32P]ATP (0.5 μCi) was added and 32P-phosphoprotein formation was measured by adsorption onto phosphocellulose as described previously. See Nelson et al., J. Neurochemistry, 1995, 65: 2350-2357.
(§2) PKC activity of each compound was measured in the absence of diacylglycerol and phosphatidylserine and PKC-δ and PKC-ε were measured in the absence of added EGTA and CaCl2, as described by Kanno et al., J. Lipid Res., 2006, 47: 1146-1156. Low concentrations of Ca^2+ were needed because high Ca^2+ can interact with the PKC phosphatidylserine binding site and prevents activation. […] To determine their PKC isoform specificity, the compounds were pre-incubated with purified isoforms of PKC for five minutes and the PKC activity was measured radiometrically.
(§3) The activation and PKC isozyme specificity of DCPLA-ethyl ester was measured following the procedures in Example 1(B) and (C), except that 9 ng of the purified isozyme was used and it was pre-incubated for 5 minutes at room temperature (FIG. 3). PKC-ε activation by DCPLA-tert-butyl ester and DCPLA-retinyl ester was measured in the same manner as DCPLA-ethyl ester (FIG. 3).
The EC50 values, PKC specificity, and activation for a select number of DCPLA esters was determined (see Table 1). EC50 values were determined by measuring the lowest concentration that activates by 50% of maximum activation. […] The specificity and activation of PKC by the various esters of DCPLA were calculated from the measurements of activation of PKC isozymes.

PKCα = PKCα (Homo sapiens, UniProt P17252); assay: Activation of purified PKC isozymes, radiometric: PKC-α; assay type: biochemical
Experimental: (§4) To measure PKC activity, 10 μg of protein from either cytosol or membrane was incubated for 15 min at 37° C. in the presence of 10 μM histones, 4.89 mM CaCl2, 1.2 μg/μl phosphatidyl-L-serine, 0.18 μg/μl 1,2-dioctanoyl-sn-glycerol, 10 mM MgCl2, 20 mM HEPES (pH 7.4), 0.8 mM EDTA, 4 mM EGTA, 4% glycerol, 8 μg/ml aprotinin, 8 μg/ml leupeptin, 2 mM benzamidine, and 0.5 μCi of [γ-^32P]ATP. [^32P]Phosphoprotein formation was measured by adsorption onto phosphocellulose as described previously. See Nelson et al. (2009) J Biol Chem 284, 34514-34521. For measurements of activation by RA, PKC activity was measured in the absence of diacylglycerol (DAG) and phosphatidylserine, as described by Nelson et al. (2009) J Biol Chem 284, 34514-34521. PKC-δ and PKC-ε were measured in the absence of added EGTA and CaCl^2, as described by Kanno et al. (2006) J Lipid Res 47, 1146-1156. The enzyme was provided as a purified isozyme for in vitro experiments.
as §1, §2, §3

PKC-δ = PKC-δ (Homo sapiens, UniProt Q05655); assay: Activation of purified PKC isozymes, radiometric: PKC-δ; assay type: biochemical
Experimental: as §4, §1, §2

Chain of PKC-δ (Q05655 whole entry): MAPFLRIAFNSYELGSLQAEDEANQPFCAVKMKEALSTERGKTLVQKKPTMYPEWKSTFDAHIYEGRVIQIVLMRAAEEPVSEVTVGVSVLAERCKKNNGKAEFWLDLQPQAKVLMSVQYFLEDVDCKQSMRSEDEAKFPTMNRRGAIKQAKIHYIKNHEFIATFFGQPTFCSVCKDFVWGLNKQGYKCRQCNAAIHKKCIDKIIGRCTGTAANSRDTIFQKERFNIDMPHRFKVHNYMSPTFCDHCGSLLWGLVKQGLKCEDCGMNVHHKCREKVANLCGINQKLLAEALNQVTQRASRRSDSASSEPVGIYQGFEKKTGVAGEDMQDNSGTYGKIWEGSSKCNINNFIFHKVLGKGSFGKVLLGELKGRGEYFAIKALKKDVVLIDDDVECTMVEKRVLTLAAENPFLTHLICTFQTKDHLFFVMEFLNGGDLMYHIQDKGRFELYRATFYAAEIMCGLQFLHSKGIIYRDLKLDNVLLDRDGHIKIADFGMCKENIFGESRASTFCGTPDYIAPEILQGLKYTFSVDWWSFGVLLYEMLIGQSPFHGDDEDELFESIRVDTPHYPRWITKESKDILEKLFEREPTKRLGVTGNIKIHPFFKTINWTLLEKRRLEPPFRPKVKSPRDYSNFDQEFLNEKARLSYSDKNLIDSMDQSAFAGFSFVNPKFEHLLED

## ADDL: Aβ derived diffusible ligands prepared from Aβ1-42
[1]; 50 nM
  Viability of primary neuron (Mean ± SEM): 91.35 ± 1.44 % of control
[1]; 500 nM
  Viability of primary neuron (Mean ± SEM): 79.01 ± 11.32 % of control
[1]; 1 μM
  viability of neurons: 50.98±3.8%
[1]; 1000 nM
  Viability of primary neuron (Mean ± SEM): 49.02 ± 7.26 % of control
PKC-ε [2]
  PKC-ε membrane translocation: 80.82±4.025%
[3]
  synaptophysin intensity compared to the control: 75.64±4.84%

## CCCC(=O)O[C@@H]1[C@@H](C)[C@@]2(O)[C@@H](C=C(CO)C[C@]3(O)C(=O)C(C)=C[C@@H]23)[C@@H]2C(C)(C)[C@]12OC(=O)CCC [Phorbol ester (PdBu)]
[4]
  3H-DCPLA-ME binding, 30 nM competitor: 100%
  3H-DCPLA-ME binding, 1 μM competitor: 81%

## CCCCCC1CC1CC1CC1CCCCCCCC(=O)OC/C=C(C)/C=C/C=C(C)/C=C/C1=C(C)CCCC1(C)C (stereo not drawn) [DCPLA-retinyl ester]
PKC-ε [5]; lowest concentration that activates by 50% of maximum activation
  pEC50: 8.00
PKC-ε [5]; of PKCε at maximum
  Activation: 129 % of control

## CCCCCC1CC1CC1CC1CCCCCCCC(=O)OC(C)C (stereo not drawn) [DCPLA-isopropyl ester]
PKC-ε [5]
  PKC-ε activation at peak: up to 40 % of control
  concentration of maximal activation: 10 nM
  Specificity ε/α: 1.4
PKCα
  PKC-α activation: up to 40 % of control
PKC-δ
  effect on PKC-δ (in words): only slightly activated

## CCCCCC1CC1CC1CC1CCCCCCCC(=O)OCC (stereo not drawn) [DCPLA-ethyl ester]
PKC-ε [5]
  Specificity ε/α: 4.2

## CCCCCC1CC1CC1CC1CCCCCCCC(=O)O (stereo not drawn) [DCPLA, cyclopropanated linoleic acid]
PKC-ε [5]
  Specificity ε/α: 7.4
[4]
  3H-DCPLA-ME binding, 30 nM competitor: 86%
  3H-DCPLA-ME binding, 1 μM competitor: 35%

## oAβ <100 kDa: filtrate from the 100 kDa filtration of the ASPD preparation
[1]; 50 nM
  Viability of primary neuron (Mean ± SEM): 76.01 ± 5.54 % of control
[1]; 500 nM
  Viability of primary neuron (Mean ± SEM): 62.94 ± 9.53 % of control
[1]; 1000 nM
  Viability of primary neuron (Mean ± SEM): 53.52 ± 2.43 % of control

## CCCCC/C=C\C/C=C\CCCCCCCC(=O)O[C@H]1CC[C@@]2(C)C(=CC[C@H]3[C@@H]4CC[C@H]([C@H](C)CCCC(C)C)[C@@]4(C)CC[C@@H]32)C1 [Cholesteryl linoleate, cholesteryl linoleate]
PKC-ε [5]
  PKC-ε activation (in words): little or no activation
PKCα
  PKC-α activation: 20%

## CCCCCCCCC1CC1CCCCCCCCOC(=O)CCCCCCCC1CC1CC1CC1CCCCC (stereo not drawn) [DCPLA-cyclopropanated oleyl ester]
PKC-ε [5]
  PKC-ε activation at peak: 140 % of control
  concentration of maximal activation: 10 nM
  Specificity ε/α: 8.1
